Consider 23 compounds from ChEMBL document CHEMBL2021909, “Isoflavones inhibit the clonogenicity of human colon cancer cells” (2012).

The test system of assay [1] is HCT-116. The assay is described as follows: Inhibition of human HCT116 clonogenicity after 7 days by crystal violet staining by densitometric analysis. In kind it is functional.
Assay [2] deals with HCT-116. In words: Antiproliferative activity against human HCT116 assessed as growth inhibition at 5 to 40 uM hrs by WST-8 assay. To be noted: TDE = time-dependent effect. In kind it is functional, cell-based. For orientation: Formazan colour is commonly taken as a measure of viable cells.
The subject of assay [3] is HCT-116. In words: Cell cycle arrest in human HCT116 cells assessed as accumulation at G2/M phase at 20 uM after 48 hrs by flow cytometry (Rvb =23.23 %). In kind it is functional. (A flow cytometer gives signals particle by particle.)
For assay [4], the system named is HCT-116. In words: Cell cycle arrest in human HCT116 cells assessed as accumulation at sub-G1 phase at 20 uM after 48 hrs by flow cytometry (Rvb =7.90 %). In kind it is functional.
Assay [5] deals with HCT-116. The assay is described as follows: Antiproliferative activity against human HCT116 assessed as growth inhibition after 24 to 48 hrs by WST-8 assay. In kind it is functional, cell-based.
The subject of assay [6] is HCT-116. In words: Cell cycle arrest in human HCT116 cells assessed as accumulation at S phase at 20 uM after 48 hrs by flow cytometry (Rvb =21.16 %). In kind it is functional.
The subject of assay [7] is HCT-116. In words: Cell cycle arrest in human HCT116 cells assessed as accumulation at G1 phase at 20 uM after 48 hrs by flow cytometry (Rvb =45.27 %). In kind it is functional.

Take `COc1cc2c(=O)c(-c3ccc(OC(C)=O)cc3)coc2cc1O`: the “inhibition (INH)” value with HCT-116 [1] is on record as 26.7%.

In the case of `COc1cc2occ(-c3ccccc3)c(=O)c2cc1OC`, the “growth inhibition (GI)” value in the assay with HCT-116 [2] was “tde”; in the assay with HCT-116 [5], “Dose-dependent effect”. For the same compound, in the assay with HCT-116 [1], the “inhibition (INH)” value came to 91.3%. The Activity with HCT-116 [3] was determined as 14.34%; in the assay on HCT-116 [4], 21.34%; with HCT-116 [6], 14.97%; in the assay on HCT-116 [7], 47.46%.

On to `COc1cc(OC)c2c(=O)c(-c3ccc(Cl)cc3)coc2c1`, for which the “inhibition (INH)” value with HCT-116 [1] is listed as 71.3%.

Turning to `COc1ccc2c(=O)c(-c3ccc(Cl)cc3)coc2c1C`, in the assay with HCT-116 [1], the “inhibition (INH)” value was 58.3%.

Take `COc1ccc(-c2coc3c(C)c(OC)ccc3c2=O)cc1`: in the assay on HCT-116 [1], the “inhibition (INH)” value came to 52.7%.

For the compound `COc1cc(OC)c2c(=O)c(-c3cccc(Cl)c3)coc2c1`, in the assay with HCT-116 [1], the “inhibition (INH)” value is recorded as 82.7%.

As to `COc1cc2c(=O)c(-c3ccccc3)coc2cc1O`, the “inhibition (INH)” value with HCT-116 [1] came to 37.3%.

As to `COc1ccc(-c2coc3c(OC)c(OC)ccc3c2=O)cc1`, the “inhibition (INH)” value with HCT-116 [1] amounted to 70%.

In the case of `COc1cc(O)c2c(=O)c(-c3ccc(O)cc3)coc2c1` [PRUNETIN], in the assay with HCT-116 [1], the “inhibition (INH)” value is on record as 74%.

On to `COc1cc(C)c2c(=O)c(-c3ccccc3)coc2c1`, for which the “inhibition (INH)” value in the assay with HCT-116 [1] amounted to 55.3%.

Consider `COc1ccc(-c2coc3cc(OC)c(OC)cc3c2=O)cc1OC`, for which the “inhibition (INH)” value in the assay on HCT-116 [1] came to 85.3%.

As to `COc1ccc2c(=O)c(-c3ccc(OC)c(OC)c3)coc2c1`, in the assay on HCT-116 [1], the “inhibition (INH)” value stood at 35.7%.

On to `COc1cc(OC)c2c(=O)c(-c3ccccc3Cl)coc2c1`, for which, in the assay with HCT-116 [1], the “inhibition (INH)” value amounted to 63.3%.

Regarding `Cc1cc2occ(-c3ccc(Cl)cc3Cl)c(=O)c2cc1Cl`, the “inhibition (INH)” value in the assay on HCT-116 [1] came out at 12.7%.

In the case of `COc1cc(OC)c2c(=O)c(-c3ccc(Br)cc3)coc2c1`, the “inhibition (INH)” value with HCT-116 [1] amounted to 13.7%.

As for `COc1cc(OC)c2c(=O)c(-c3ccc(OC)c(OC)c3)coc2c1`, the “inhibition (INH)” value in the assay with HCT-116 [1] is 22.3%.

Turning to `O=c1c(-c2ccc(O)cc2)coc2c(O)c(O)ccc12`, in the assay with HCT-116 [1], the “inhibition (INH)” value worked out at 64%.

For the compound `Cc1c(O)ccc2c(=O)c(-c3ccccc3)coc12`, in the assay on HCT-116 [1], the “inhibition (INH)” value worked out at 27.7%.

Regarding `Cc1c(O)ccc2c(=O)c(-c3ccc(Cl)cc3)coc12`, in the assay with HCT-116 [1], the “inhibition (INH)” value turned out to be 46.3%.

On to `COc1ccc2c(=O)c(-c3ccccc3)coc2c1`, for which, in the assay with HCT-116 [1], the “inhibition (INH)” value turned out to be 42%.

As to `COc1cc2occ(-c3ccccc3Cl)c(=O)c2cc1Cl`, the “inhibition (INH)” value in the assay with HCT-116 [1] was found to be 5.3%.

On to `COc1ccc(-c2coc3cc(O)c(OC)cc3c2=O)cc1` [CASTANIN], for which the “inhibition (INH)” value in the assay on HCT-116 [1] is given as 4.3%.

`COc1ccc2c(=O)c(-c3ccccc3)coc2c1C`: the “inhibition (INH)” value with HCT-116 [1] was 54%.
